test: Human HepG2 cell viability assay in 384 well format; type: toxicity, cell-based; parameters: dose 125 nL, time 70.5 hour; cytotoxicity at 70.5 h: concentration not given beside the values; details: HepG2 cells, read-out: Inhibition

First: CC(C)C(=O)NCC(=O)N1CCC2(CC1)c1ccccc1[C@@H](N)[C@@H]2O
Second: CCC(O)CN1CCN(C(=O)Cc2ccccc2Cl)CC1 (stereo unspecified)
The cytotoxicity at 70.5 h of the first is higher: 13.2% for the first, -0.929% for the second.

Going from `CC(C)c1noc(CCCC(=O)N2CCN(Cc3ccncc3)CC2)n1` to `CCCc1noc(CCCC(=O)N2CCCC(n3ccnc3C)C2)n1` (stereo unspecified), the cytotoxicity at 70.5 h rises from -17.6% to -2.44%.

Compared with `O=C(c1c2c(NCC3CC3)ncnc2n2ccccc12)N1CCOCC1`, `O=C(NCc1cccnc1)N1CCc2ncnc(NC3CC3)c2CC1` is higher in cytotoxicity at 70.5 h: -1.89% for the first, 11.7% for the second.

Going from `CCNc1nc(C)c(C(=O)N2CCC(C(O)Cc3ccccc3)CC2)s1` (stereo unspecified) to `CN(C)CCO[C@@H]1CC[C@H]2[C@H]1OCCN2C(=O)CCc1ccccc1`, the cytotoxicity at 70.5 h rises from -14.6% to -12.8%.

Compared with `CCc1ccc(C(=O)NC2CCCN(c3ccn(C)n3)C2=O)o1` (stereo unspecified), `Cc1nnc(NC(=O)NCc2ccc(N3CCC(C)CC3)nc2)s1` is lower in cytotoxicity at 70.5 h: 9.2% for the first, -8.92% for the second.

First: O=C(C[C@@H]1COC[C@H]2CN(CC3CC3)C[C@@H]12)N1CCCCO1
Second: O=C(O)c1cccc(N2C[C@H](NC(=O)C3CCOCC3)[C@@H](C3CC3)C2)n1
The cytotoxicity at 70.5 h of the first is higher: 5.39% for the first, -4.78% for the second.

First: Cc1ccc(N2CCCC3(CCN(C(=O)NC4CCCC4)C3)C2)nn1 (stereo unspecified)
Second: CCc1cccc(N2CCC(NC(=O)C3CCOCC3)CC2)c1
The cytotoxicity at 70.5 h of the first is lower: -12.8% for the first, -5.26% for the second.

Compared with `Cn1ccnc1CN1CCC(Cn2cc(-c3ccncc3)nn2)CC1`, `Cc1cncc(C2CCN(Cc3ccsc3)CC2)n1` is higher in cytotoxicity at 70.5 h: 3.24% for the first, 4.8% for the second.

Going from `Cc1ncc(CN2CCC3(CC2)CC(=O)N(C)C3)cn1` to `CC(C)CN1CC2(CCN(C(=O)C3CSC(C)(C)C(=O)N3)CC2)CC1=O` (stereo unspecified), the cytotoxicity at 70.5 h falls from 4.13% to -1.86%.

Going from `O=S(=O)(NCC1COc2ccccc2C1)N1CCCC1` (stereo unspecified) to `OC[C@H]1CC[C@]2(CC1)CN(Cc1ccccn1)Cc1ccccc1O2`, the cytotoxicity at 70.5 h falls from -2.58% to -13.2%.

Compared with `CCOc1ccc(Cl)c(C(=O)N2CCCN(CC(N)=O)CC2)n1`, `O=C(CN1CCN(C(=O)c2cccc(-c3ccoc3)c2)CC1)C1CC1` is higher in cytotoxicity at 70.5 h: -12% for the first, -5.66% for the second.

Going from `Cc1cccn2cc(CNCc3cccc4c3OCCCO4)nc12` to `O=C(NCCc1nc2ccccc2s1)c1coc(CN2CCOCC2)c1`, the cytotoxicity at 70.5 h falls from 8.14% to 5.71%.

Going from `O=C(C1CCOCC1)N1CC[C@@H]2[C@H]1CCC(=O)N2c1ccccc1` to `Cc1noc(C)c1CN1CC[C@H]2[C@@H]1CCC(=O)N2CC1CCOCC1`, the cytotoxicity at 70.5 h falls from 13.7% to -3.53%.

Going from `Cc1cc(NCC2CCCCC2)n2ncnc2n1` to `O=C(Cn1cc(NC(=O)c2ccc(F)cc2F)cn1)NC1CCCC1`, the cytotoxicity at 70.5 h falls from -2.65% to -4.45%.

Going from `CC1(NC(=O)CNC(=O)C(C)(C)C)CCc2ccccc2C1` (stereo unspecified) to `CN1[C@@H](c2ccccc2)[C@@H](C(=O)NCc2ccccn2)C[C@@]1(C)C(=O)O`, the cytotoxicity at 70.5 h rises from -7.61% to 23%.

First: CC(C)c1ocnc1C(=O)Nc1cccc(Cn2ccccc2=O)c1
Second: Cn1cc2ncn([C@H]3CCN(Cc4ccccc4)C3)c(=O)c2n1
The cytotoxicity at 70.5 h of the first is higher: 19% for the first, -6.58% for the second.

First: COc1cc(CCC(C)O)c(OC)c2c1OCO2 (stereo unspecified)
Second: COCCN(C)C[C@@H]1CN(C(=O)c2c(F)ccc(OC)c2F)C[C@@H]1CO
The cytotoxicity at 70.5 h of the first is lower: -4.78% for the first, 47.7% for the second.

Compared with `CCCN1C(=O)[C@@H]2[C@@H](CCN2C(=O)COC)N(Cc2cccs2)C1=O`, `CN(C)C(=O)NCc1ncn2c1CN(Cc1cccs1)CCC2` is lower in cytotoxicity at 70.5 h: 11.5% for the first, -3.13% for the second.

Going from `Cn1nnc2c(N3CC(C(=O)NCc4ccccc4F)C3)ncnc21` to `CC(C)n1cnnc1CNC(=O)CCCOc1ccccc1F`, the cytotoxicity at 70.5 h falls from -8.25% to -11.9%.

First: Cc1ncc(Cl)c(C(=O)N2CC(=O)N(C)c3ccccc32)n1
Second: O=C(c1ncn2c1CNS(=O)(=O)c1ccccc1-2)N1CCCCCC1
The cytotoxicity at 70.5 h of the first is lower: -9.43% for the first, 0.0876% for the second.

Going from `N#Cc1cn(CCCN2CCc3ccccc3C2)c(=O)[nH]c1=O` to `Cc1nc(CN2CCCC2Cn2ccnc2C(C)C)nc2ccccc12` (stereo unspecified), the cytotoxicity at 70.5 h rises from -5.98% to 19.9%.

First: Cc1cc(C(=O)NCc2ccc(-c3n[nH]cc3C(=O)N(C)C)cc2)on1
Second: COc1c[nH]c(C(=O)Nc2nc(C)cs2)cc1=O
The cytotoxicity at 70.5 h of the first is higher: -2.38% for the first, -5.81% for the second.

Compared with `CC(C)Cc1nnc(SCC(=O)O)n1-c1ccc(F)cc1F`, `CC(C)CCN1CCN(CC(=O)Nc2ccc3nsnc3c2)CC1` is lower in cytotoxicity at 70.5 h: 5.45% for the first, -11.4% for the second.

Compared with `COCc1cnc2n1CCN(C(=O)C1=CCCC1)C2C` (stereo unspecified), `CC(=O)N1CCCc2ccc(S(=O)(=O)N3CCCCC3C)cc21` (stereo unspecified) is higher in cytotoxicity at 70.5 h: -14.6% for the first, -3.92% for the second.

First: CCc1nc2n(n1)CC(NCc1nc(C)c(C)o1)CC2 (stereo unspecified)
Second: Cc1cnc(C(=O)N2Cc3ncn(C)c3C(COCC(C)C)C2)cn1 (stereo unspecified)
The cytotoxicity at 70.5 h of the first is lower: -5.85% for the first, -4.87% for the second.

Going from `Cc1ccc(CN2Cc3c(C(=O)N4CCN(C)CC4)nn(C)c3C2)s1` to `CC(C)n1nc(CN2CCOCC2)c2c1CN(C(=O)c1ccno1)C2`, the cytotoxicity at 70.5 h falls from -3.87% to -4.42%.

Compared with `O=C(NCCc1coc(-c2ccc(F)cc2)n1)NC1CCC(O)CC1` (stereo unspecified), `O=C1CCC(c2nc(C3CCNCC3)no2)N1` (stereo unspecified) is lower in cytotoxicity at 70.5 h: 27.6% for the first, -6.87% for the second.

Going from `O=c1c2sccc2ncn1CC(O)CN1CCOCC1` (stereo unspecified) to `Cc1nc2cc(=O)[nH]n2c(C)c1CC(=O)NC(C)C`, the cytotoxicity at 70.5 h rises from -10.3% to -7.48%.
